A short description of one data set: in vitro. The conditions noted are these: human, hela cells, % viability.
Consider `CCCc1ccc(S(=O)(=O)Nc2ccc(C(=O)N3CCN(C)CC3)cc2)cc1` [CBK034547], for which the viability at 28.5 h, 10 µM is 90.1%. As to `COc1ccc(NC(=O)CSc2nc(O)cc(=O)[nH]2)cc1` [CBK261747], the viability at 28.5 h, 10 µM was found to be 88.8%. For the compound `OC1(c2cccnc2F)CCN(Cc2cc(F)ccc2F)CC1` [CBK284371], the viability at 28.5 h, 10 µM amounted to 83.6%. `Cc1cc(C)nc(SCC(=O)N/N=C2/C(=O)Nc3ccccc32)n1` [CBK262883]: the viability at 28.5 h, 10 µM came out at 108%. As to `COCCn1c(SC(C)C(=O)OC)nc2ccc(Br)cc2c1=O` (centres unmarked) [CBK306479], the viability at 28.5 h, 10 µM was 88.5%. As to `CCc1cccc(C)c1NC(=O)CN(c1ccc(Br)c(C)c1)S(C)(=O)=O` [CBK267935], the viability at 28.5 h, 10 µM came out at 102%. In the case of `CCCC(=O)c1ccc(S(=O)(=O)N2CCN(Cc3cccc(Br)c3)CC2)cc1` [CBK063146], the viability at 28.5 h, 10 µM was 87.4%. `Cc1ccc2oc(CN3CCC(O)(c4cccnc4)CC3)c(C)c2c1` [CBK282816]: the viability at 28.5 h, 10 µM worked out at 94.7%. The same measure, in the same setting: the value for `OC(CNCCc1ccccc1)CN1c2ccccc2Sc2ccccc21` (centres unmarked) [CBK264017G] was 97.6%; that for `COC(=O)C1=C(C(=O)OC)SC(=C2C(=S)C(C)(C)N(C(=O)c3ccc4ccccc4c3)c3cc(C)ccc32)S1` [CBK261622] was 116%. For `CC(C)(C)c1ccc(O)c(NC(=S)NC(=O)c2ccccc2I)c1` [CBK264399], the viability at 28.5 h, 10 µM was determined as 114%. In the case of `Cn1cc(CCCC(=O)NC2CCCOC2)c2ccccc21` (centres unmarked) [CBK282486], the viability at 28.5 h, 10 µM was 81.8%. Regarding `Cn1ncc2c1CCCN(C(=O)c1ccccc1C(F)(F)F)C2` [CBK282251], the viability at 28.5 h, 10 µM is 84.1%. As to `CC(C)c1nc(C(=O)NCC2CCCN(c3ncccn3)C2)cs1` (centres unmarked) [CBK304351], the viability at 28.5 h, 10 µM was found to be 100%.

Turning to `O=C(CN1CCCC1)Nc1sc2c(c1C(=O)NCc1ccccc1)CCCC2` [CBK268926], the viability at 28.5 h, 10 µM was 105%.

In the case of `CN1CCN(C(=O)CN(Cc2ccc(Cl)cc2)S(=O)(=O)c2ccc(Br)cc2)CC1` [CBK265771], the viability at 28.5 h, 10 µM turned out to be 113%. On to `CC(NC(=O)c1cnc(-c2ccc(Cl)cc2)c(-c2ccc(O)cc2)c1)c1ccc(F)cc1` (centres unmarked) [CBK036751], for which the viability at 28.5 h, 10 µM stood at 89.9%. On the same count and under the same terms, to `CC(Sc1ccccc1)C(=O)NC(C)(C)C` (centres unmarked) [CBK026610] belongs 116%. As to `CCCc1n[nH]c(=S)n1CC(=O)NCc1ccc(OCCC(C)C)c(OC)c1` [CBK297743], the viability at 28.5 h, 10 µM stood at 84.4%. On to `COc1ccc2nc(NC(=O)c3ccc4ncsc4c3)sc2c1` [CBK287364], for which the viability at 28.5 h, 10 µM was 94.8%.

With `Cc1c(-c2ccc(Cl)cc2Cl)nc2ccccc2c1C(=O)NCCCc1ccccc1` [CBK262635], the viability at 28.5 h, 10 µM was determined as 89.4%. As to `Cc1ccnc(NS(=O)(=O)c2ccc(NC(=O)c3cc(-c4ccc(Br)cc4)nc4ccccc34)cc2)n1` [CBK263650], the viability at 28.5 h, 10 µM turned out to be 96.8%. For the compound `Cc1nc(C)c(C(=O)N2CCCc3ccccc32)s1` [CBK200345], the viability at 28.5 h, 10 µM stood at 112%. For the compound `OCCCNc1nccnc1-c1cccc(F)c1` [CBK088976], the viability at 28.5 h, 10 µM came out at 98.5%. With `Cc1cnccc1CN1CCC[C@@H]2CN(C(=O)CC(C)C)C[C@@H]21` [CBK285289], the viability at 28.5 h, 10 µM worked out at 104%.

On to `COc1ccc(C(=O)CCCN2CCc3c([nH]c4ccc(OC)cc34)C2)cc1` [CBK083515T], for which the viability at 28.5 h, 10 µM came out at 101%. Still for that read-out and setting: to `COc1ccccc1NC(=O)c1sc2ncn(CC(=O)NC3CCCCC3)c(=O)c2c1C` [CBK265788] belongs 98.5%; to `CC(C)C1CC(CCNCc2ccc(N(C)C)cc2)(c2ccccc2)CCO1` (centres unmarked) [CBK266210], 98.9%; to `O=C(Oc1ccc(/C=N/NC(=O)C2COc3ccccc3O2)cc1)c1cccnc1` (centres unmarked) [CBK262811], 96.5%.

As to `Cc1ccc(S(=O)(=O)N2CCCN(CC(O)c3ccccc3)CC2)cc1` (centres unmarked) [CBK297911], the viability at 28.5 h, 10 µM came to 104%. In the case of `CCc1nnc(NS(=O)(=O)c2ccc(OC(F)(F)F)cc2)s1` [CBK026672], the viability at 28.5 h, 10 µM came out at 91.7%.

On to `CC(NC(=O)N1CCSCC1)c1ccc2c(c1)CC(=O)N2` (centres unmarked) [CBK305093], for which the viability at 28.5 h, 10 µM is 96.7%. In the case of `Cc1nc(COc2ccccc2Cl)sc1-c1ccnc(N)n1` [CBK057769], the viability at 28.5 h, 10 µM was 91.3%. Consider `CC1(c2ccc(Br)cc2)NC(=O)CS1` (centres unmarked) [CBK018962], for which the viability at 28.5 h, 10 µM stood at 92.2%. Consider `CC(C)n1cnnc1CN(C)C(=O)CCc1nc2ccccc2s1` [CBK304638], for which the viability at 28.5 h, 10 µM is 97%.

As to `COc1ccc(C(=O)/C=C/c2ccc(N3N=C(c4ccccc4)CC3c3ccccc3)cc2)cc1` (centres unmarked) [CBK262274], the viability at 28.5 h, 10 µM stood at 91.7%.

With `COCCNC(=O)c1ccc(-c2ccc(OC)cc2)nc1N1CCN(C(=O)c2ccco2)CC1` [CBK106010], the viability at 28.5 h, 10 µM worked out at 88.1%.

Take `O=C(CCn1c(=O)oc2cc(Cl)ccc21)NCc1ccco1` [CBK269857]: the viability at 28.5 h, 10 µM is 95%. On to `O=C(O)CC1SC(Nc2ccccc2F)=NC1=O` (centres unmarked) [CBK059096], for which the viability at 28.5 h, 10 µM was 94.9%. For `CN1C(=O)c2ccccc2C(=O)[C@@]2(C)CN(C3CCCC3)C[C@@H]12` [CBK283476], the viability at 28.5 h, 10 µM amounted to 83.3%. The same measure, in the same setting: the value for `N#C/C(=C\c1cn(-c2ccccc2)nc1-c1cccc(S(=O)(=O)N2CCCC2)c1)c1nc2ccccc2c(=O)[nH]1` [CBK266296] was 91.9%. As for `CCOc1ccc(C(=O)NC(=S)Nc2ncccc2C)cc1[N+](=O)[O-]` [CBK264128], the viability at 28.5 h, 10 µM was found to be 98.3%.

With `O=C(O)Cn1nnc(-c2ccc(C(=O)O)cc2)n1` [CBK267926], the viability at 28.5 h, 10 µM was found to be 85%. For the compound `Cc1ccccc1C(=O)N1CCN(Cc2cc(=O)n3ccsc3n2)CC1` [CBK304595], the viability at 28.5 h, 10 µM was found to be 90.9%. On to `CC(C)(Oc1ccc(Cl)cc1)C(=O)NCCc1ccc(S(N)(=O)=O)cc1` [CBK265628], for which the viability at 28.5 h, 10 µM is 107%. Consider `O=C1CC(SCc2nc3ccccc3[nH]2)C(=O)N1c1ccccc1Cl` (centres unmarked) [CBK266702], for which the viability at 28.5 h, 10 µM worked out at 94.7%. For the compound `Cc1noc(C)c1NC(=O)c1n[nH]c2ccccc12` [CBK200301], the viability at 28.5 h, 10 µM is 104%.

As for `O=C(NC1Cc2ccccc2C1)c1cnccc1C(F)(F)F` [CBK200353], the viability at 28.5 h, 10 µM worked out at 98.6%.

Take `CC(C)(CN)c1ccccc1` [CBK012106C]: the viability at 28.5 h, 10 µM was found to be 81.6%. As to `CC(C)OCC(O)C[S+]([O-])Cc1ccccc1` (centres unmarked) [CBK261761], the viability at 28.5 h, 10 µM came to 93.4%. Regarding `Cc1cc(C)c2c3c(sc2n1)C(=O)N(C)CC(=O)N3` [CBK287959], the viability at 28.5 h, 10 µM was determined as 83.8%. Same read-out and setting: the value for `COc1ccnc(N2CCCN(CC(N)=O)CC2)n1` [CBK083992] was 87.2%; that for `Cc1nc2ccccc2nc1COC(=O)c1ccc(S(=O)(=O)N2CCCCC2C)cc1` (centres unmarked) [CBK297932] was 90.7%; that for `CC1(C)CC(=O)c2sc(NC(=O)c3ccc4ncccc4c3)nc2C1` [CBK144105] was 92.2%. Same read-out and setting: the value for `Cc1ccc(-c2ncc(OC3CCN(C)CC3)nc2N)c(C)c1` [CBK145139] was 97.5%; that for `OCCCNC(=S)NCCc1ccccc1` [CBK264869] was 99.7%. In the case of `CN1CCN(C(=O)c2ccc(-c3nccnc3NCCc3cccnc3)cc2)CC1` [CBK036838], the viability at 28.5 h, 10 µM worked out at 97.2%. `O=C(Nc1ccc(-c2nc3ccccc3o2)c(O)c1)c1ccc(-c2cccc(Cl)c2)o1` [CBK263422]: the viability at 28.5 h, 10 µM was determined as 95.4%.

As for `Cc1cc(C)c(-n2cccn2)c(CN2CCC(CO)C2)c1` (centres unmarked) [CBK282915], the viability at 28.5 h, 10 µM is 87.1%. With `CCC(Oc1ccccc1)C(=O)Nc1cc(OC)c(Cl)cc1OC` (centres unmarked) [CBK262235], the viability at 28.5 h, 10 µM came to 112%. `Cc1ccc(-c2cc(C(=O)NCCCn3ccnc3)no2)cc1` [CBK268200]: the viability at 28.5 h, 10 µM was 102%. The same measure, in the same setting: the value for `Cc1cc(C)c2cc(C)c3nn(CC(=O)N(C)C)c(=O)n3c2c1` [CBK283821] was 81.8%; that for `CCN(CC)C(=O)C1C2CCC3(CC(=O)c4ccccc4O3)C21` (centres unmarked) [CBK284923] was 105%. As to `CC(C)(C)c1ccc(COn2c(=O)c(-c3ccccc3Cl)[n+]([O-])c3ccccc32)cc1` [CBK267494], the viability at 28.5 h, 10 µM is 101%. In the case of `Clc1cccc(-c2cncc(N3CCN(Cc4ccccn4)CC3)n2)c1` [CBK037282], the viability at 28.5 h, 10 µM amounted to 99.5%. Same read-out and setting: the value for `COCCNC(=O)c1ccc(-c2ccccc2CO)nc1N1CCOCC1` [CBK076559] was 97.6%; that for `COc1ccc(Cl)cc1S(=O)(=O)N1CCC(C(=O)NCCO)CC1` [CBK270002] was 84%; that for `CCCCC(c1cccnc1)N(C)C(=O)c1cc(C)c(CC)n(C)c1=O` (centres unmarked) [CBK306999] was 88.5%. The same measure, in the same setting: the value for `O=c1nc(NN=C2CCCCC2)cn[nH]1` [CBK018838] was 90.8%. For the compound `O=C(O)C1N(Cc2ccccc2)CCCN1Cc1ccccc1` [CBK265196], the viability at 28.5 h, 10 µM turned out to be 111%.

As for `COc1ccc(N2CCN(CCNC(=O)Nc3ccc(Cl)cc3)CC2)cc1` [CBK268725], the viability at 28.5 h, 10 µM worked out at 94.9%.

As for `CC(=O)NCCCCCC(=O)N1CCN(c2ccc(C(F)(F)F)cc2)CC1` [CBK091312], the viability at 28.5 h, 10 µM was determined as 92.8%. Still for that read-out and setting: the value for `O=C(NCCN1CCOCC1)c1cccc(S(=O)(=O)N2CCCCCC2)c1` [CBK266668] was 97.3%; that for `O=C(O)c1ccc(N2N=C(c3ccccc3)/C(=C\c3cccc([N+](=O)[O-])c3O)C2=O)cc1` [CBK265615] was 102%; that for `Cc1cc(I)ccc1NC(=O)CN(c1ccccc1)S(=O)(=O)c1ccccc1[N+](=O)[O-]` [CBK265954] was 78.6%. Take `Cc1cc(COc2cc(NC(C)C)ncn2)no1` [CBK115887]: the viability at 28.5 h, 10 µM was determined as 92.7%. As to `CN(CC(=O)Nc1ccn(Cc2cccnc2)n1)c1ccc(C#N)cn1` [CBK306105], the viability at 28.5 h, 10 µM was 87.3%. On to `Cc1cc(NC(=O)c2ccc3ccccc3c2)nc2c1c(=O)oc1ccccc12` [CBK291122], for which the viability at 28.5 h, 10 µM came out at 117%.

Staying with this data set, now noted: human, hela cells, % viability, bulk resorufin, single well.
For `Clc1cccc(N2CCNCC2)n1` [CBK001379], the viability at 28.5 h, 10 µM worked out at 95.3%. As for `CCC(=O)c1c(O)n(-c2ccccc2)c(=O)[nH]c1=O` [CBK287862], the viability at 28.5 h, 10 µM stood at 96.8%.
